# Experimental data: patent publication US10189807B2, “Tetrahydrothiophene-based GABA aminotransferase inactivators” (Northwestern University, priority 2015, dated 2019)
# Counter-ions that a name gives are not always drawn. Like-named read-outs stand apart in the source and are kept apart here.
# Assays:
# GABA-AT [1] = target: T1, GABA-AT (Sus scrofa (Pig), UniProt P80147); experiment: Inhibition of GABA-AT, coupled assay with SSDH; type: biochemical
# Experimental: (§1) GABA-AT was isolated and purified from pig brain by a published procedure.
# Inhibition constants were determined by monitoring GABA-AT activity in the presence of 0-50 mM concentrations of synthesized analogues using a coupled assay with the enzyme succinic semialdehyde dehydrogenase (SSDH). The assay solution consisted of 10 mM GABA, 5 mM α ketoglutarate, 1 mM NADP^+, 5 mM β-mercaptoethanol, and excess SSDH in 50 mM potassium pyrophosphate buffer, pH 8.5. Enzyme activity was determined by observing the change in absorbance at 340 nm at 25° C. IC50 values were obtained using non-linear regression in GraphPad Prism5 software. Subsequent Ki values were determined using the Cheng-Prusoff relationship. (Yung-Chi, C.; Prusoff, W. H. Biochem. Pharmacol. 1973, 22, 3099-3108.)
# [2] = test system: aspartate aminotransferase; conditions: off-target enzyme; cited from earlier work
# GABA-AT [3] = conditions: prior art; cited from earlier work
# CYP2C8 = CYP2C8 (Homo sapiens (Human), UniProt P10632); experiment: Inhibition of microsomal cytochromes P450: CYP2C8; type: in vitro ADME; conditions: 10 μM, HLM, paclitaxel substrate, 10 min at 37° C.
# Experimental: (§2) The experiments were performed by Eurofins Panlabs (Redmond, Wash. 98052, USA). CYP1A inhibition (HLM, phenacetin substrate), CYP2B6 inhibition (HLM, bupropion substrate), CYP2C8 inhibition (HLM, paclitaxel substrate), CYP2C9 inhibition (HLM, diclofenac substrate), CYP2C19 inhibition (HLM, omeprazole substrate), CYP2D6 inhibition (HLM, dextromethorphan substrate), and CYP3A inhibition (HLM, midazolam and testosterone substrates) were tested. The test concentration was 10 μM. The incubation time was 10 min at 37° C. The detection method was by HPLC-MS/MS. The experiments were duplicated, and the % inhibition of the control values was averaged (FIG. 10).
# CYP2D6 = CYP2D6 (Homo sapiens (Human), UniProt P10635); experiment: Inhibition of microsomal cytochromes P450: CYP2D6; type: in vitro ADME; conditions: 10 μM, HLM, dextromethorphan substrate, 10 min at 37° C.
# Experimental: as §2
# CYP3A = experiment: Inhibition of microsomal cytochromes P450: CYP3A; type: in vitro ADME, human; conditions: 10 μM, HLM, midazolam and testosterone substrates, 10 min at 37° C.
# Experimental: as §2
# CYP2B6 = CYP2B6 (Homo sapiens (Human), UniProt P20813); experiment: Inhibition of microsomal cytochromes P450: CYP2B6; type: in vitro ADME; conditions: 10 μM, HLM, bupropion substrate, 10 min at 37° C.
# Experimental: as §2
# GABA-AT [4] = target: T1, GABA-AT; experiment: Time-dependent inhibition (inactivation) of GABA-AT, Kitz and Wilson replot; type: biochemical; conditions: preliminary in vitro results
# Experimental: as §1
# GABA-AT (17.5 μL) was incubated in the presence of varying concentrations of each compound (70 μL final volume) at 25° C. in 50 mM potassium pyrophosphate buffer solution, pH 6.5, containing 5 mM α-ketoglutarate and 1 mM β-mercaptoethanol. […] The relative enzyme activity was determined by normalizing the rate of increasing absorbance at 340 nm to a control. A Kitz and Wilson replot was used to determine the kinetic constants KI and kinact.
# CYP2C19 = CYP2C19 (Homo sapiens (Human), UniProt P33261); experiment: Inhibition of microsomal cytochromes P450: CYP2C19; type: in vitro ADME; conditions: 10 μM, HLM, omeprazole substrate, 10 min at 37° C.
# Experimental: as §2
# CYP2C9 = CYP2C9 (Homo sapiens (Human), UniProt P11712); experiment: Inhibition of microsomal cytochromes P450: CYP2C9; type: in vitro ADME; conditions: 10 μM, HLM, diclofenac substrate, 10 min at 37° C.
# Experimental: as §2
# CYP1A = CYP1A (Homo sapiens (Human), UniProt P05177); experiment: Inhibition of microsomal cytochromes P450: CYP1A; type: in vitro ADME; conditions: 10 μM, HLM, phenacetin substrate, 10 min at 37° C.
# Experimental: as §2
# Plasma protein binding = type: in vitro ADME
# [5] = Metabolic stability in human liver microsomes; type: in vitro ADME; conditions: 0.1 μM, over 60 minutes at 37° C., LC-MS/MS
# Experimental: The experiments were performed by Eurofins Panlabs (Redmond, Wash. 98052, USA). The test concentration of 17 was 0.1 μM. […] The detection method was by LC-MS/MS. Imipramine, propranolol, terfenadine, and verapamil were run in similar condition as controls.
# hERG channel = hERG channel (Homo sapiens (Human), UniProt Q12809); experiment: Inhibition of the hERG channel, automated whole-cell patch clamp; type: cell-based; conditions: hERG CHO-K1 cell line; 0.1, 1 and 10 μM; 5 min at room temperature
# Experimental: The experiments were performed by Eurofins Panlabs (Redmond, Wash. 98052, USA). hERG CHO-K1 cell line was used. The test concentrations were 0.1 μM, 1 μM, and 10 μM. The incubation time was 5 min at room temperature, cumulatively. The detection method used an automated whole-cell patch clamp. The experiments were duplicated, and the % inhibition of the tail current was averaged (FIG. 9).
# infantile spasms = conditions: multiple-hit rat model of infantile spasms; cited from earlier work
# [6] = competitive inhibition, read-out: Ki (competitive inhibitor of GABA-AT)
# T1 sequence (P80147 29-500 limits assumed): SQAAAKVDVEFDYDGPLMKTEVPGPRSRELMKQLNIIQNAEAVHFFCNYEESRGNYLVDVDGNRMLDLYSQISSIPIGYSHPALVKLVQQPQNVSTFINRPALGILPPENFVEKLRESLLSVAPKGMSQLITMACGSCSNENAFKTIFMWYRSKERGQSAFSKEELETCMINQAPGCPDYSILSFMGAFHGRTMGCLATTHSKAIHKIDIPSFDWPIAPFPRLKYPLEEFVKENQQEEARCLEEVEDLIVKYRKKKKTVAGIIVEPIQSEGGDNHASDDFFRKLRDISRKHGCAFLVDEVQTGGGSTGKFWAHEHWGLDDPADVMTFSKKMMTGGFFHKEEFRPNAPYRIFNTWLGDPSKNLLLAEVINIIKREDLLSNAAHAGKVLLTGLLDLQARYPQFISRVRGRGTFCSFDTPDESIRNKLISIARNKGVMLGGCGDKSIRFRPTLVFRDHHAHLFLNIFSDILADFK
# CYP2D6, sequence (P10635 whole entry): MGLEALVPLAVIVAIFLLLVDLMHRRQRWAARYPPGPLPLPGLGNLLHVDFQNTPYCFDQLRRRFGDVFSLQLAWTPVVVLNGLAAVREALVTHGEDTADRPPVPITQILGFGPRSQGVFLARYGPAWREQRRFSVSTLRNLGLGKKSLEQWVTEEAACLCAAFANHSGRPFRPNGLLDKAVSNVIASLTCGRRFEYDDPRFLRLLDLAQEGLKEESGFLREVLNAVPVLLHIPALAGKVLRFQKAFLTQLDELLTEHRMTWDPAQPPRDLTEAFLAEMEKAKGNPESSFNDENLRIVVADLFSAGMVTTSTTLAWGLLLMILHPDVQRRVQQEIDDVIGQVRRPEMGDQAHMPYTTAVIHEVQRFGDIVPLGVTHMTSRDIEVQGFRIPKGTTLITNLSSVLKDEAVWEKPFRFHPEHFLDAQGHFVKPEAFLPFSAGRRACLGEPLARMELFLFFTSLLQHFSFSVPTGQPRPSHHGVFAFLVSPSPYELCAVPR
# CYP2C19, sequence (P33261 whole entry): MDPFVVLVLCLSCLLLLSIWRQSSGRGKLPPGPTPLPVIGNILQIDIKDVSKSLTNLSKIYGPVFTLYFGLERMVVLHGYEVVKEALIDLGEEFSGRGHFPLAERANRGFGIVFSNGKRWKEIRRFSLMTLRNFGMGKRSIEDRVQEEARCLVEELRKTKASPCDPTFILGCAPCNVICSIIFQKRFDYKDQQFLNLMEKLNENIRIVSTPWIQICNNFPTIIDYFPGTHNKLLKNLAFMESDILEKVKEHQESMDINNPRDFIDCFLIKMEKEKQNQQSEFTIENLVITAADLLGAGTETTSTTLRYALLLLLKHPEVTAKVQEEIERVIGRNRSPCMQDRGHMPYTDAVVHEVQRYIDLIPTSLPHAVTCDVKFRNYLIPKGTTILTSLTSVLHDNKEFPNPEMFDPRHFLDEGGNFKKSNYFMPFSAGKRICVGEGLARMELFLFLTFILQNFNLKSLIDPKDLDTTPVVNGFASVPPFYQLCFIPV
# CYP1A, sequence (P05177 whole entry): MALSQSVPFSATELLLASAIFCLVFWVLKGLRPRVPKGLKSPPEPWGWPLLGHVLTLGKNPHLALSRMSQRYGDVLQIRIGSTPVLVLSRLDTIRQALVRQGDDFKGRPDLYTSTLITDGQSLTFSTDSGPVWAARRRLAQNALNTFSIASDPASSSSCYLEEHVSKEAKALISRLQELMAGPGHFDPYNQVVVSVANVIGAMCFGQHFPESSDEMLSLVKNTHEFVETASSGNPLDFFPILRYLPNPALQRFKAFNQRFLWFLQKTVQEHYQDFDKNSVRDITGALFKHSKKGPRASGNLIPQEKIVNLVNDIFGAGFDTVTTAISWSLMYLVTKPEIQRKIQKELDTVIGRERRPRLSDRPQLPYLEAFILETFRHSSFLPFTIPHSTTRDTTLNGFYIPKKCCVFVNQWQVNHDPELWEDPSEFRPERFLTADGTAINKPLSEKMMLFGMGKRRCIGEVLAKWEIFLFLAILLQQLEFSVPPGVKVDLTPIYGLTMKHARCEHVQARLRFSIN
# CYP2C9, sequence (P11712 whole entry): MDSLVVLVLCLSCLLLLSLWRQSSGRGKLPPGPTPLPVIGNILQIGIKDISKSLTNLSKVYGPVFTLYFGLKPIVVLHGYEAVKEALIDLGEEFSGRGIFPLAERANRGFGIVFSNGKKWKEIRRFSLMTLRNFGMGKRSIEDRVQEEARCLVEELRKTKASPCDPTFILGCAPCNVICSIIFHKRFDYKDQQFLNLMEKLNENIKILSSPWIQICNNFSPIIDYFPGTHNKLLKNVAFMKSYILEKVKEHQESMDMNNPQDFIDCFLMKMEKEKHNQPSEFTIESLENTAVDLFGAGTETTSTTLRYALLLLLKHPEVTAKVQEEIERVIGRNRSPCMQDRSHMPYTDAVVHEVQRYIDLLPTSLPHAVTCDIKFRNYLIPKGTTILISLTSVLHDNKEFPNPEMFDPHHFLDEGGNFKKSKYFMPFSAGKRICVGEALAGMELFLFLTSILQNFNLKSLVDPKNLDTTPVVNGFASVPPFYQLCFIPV
# hERG channel, sequence (Q12809 whole entry): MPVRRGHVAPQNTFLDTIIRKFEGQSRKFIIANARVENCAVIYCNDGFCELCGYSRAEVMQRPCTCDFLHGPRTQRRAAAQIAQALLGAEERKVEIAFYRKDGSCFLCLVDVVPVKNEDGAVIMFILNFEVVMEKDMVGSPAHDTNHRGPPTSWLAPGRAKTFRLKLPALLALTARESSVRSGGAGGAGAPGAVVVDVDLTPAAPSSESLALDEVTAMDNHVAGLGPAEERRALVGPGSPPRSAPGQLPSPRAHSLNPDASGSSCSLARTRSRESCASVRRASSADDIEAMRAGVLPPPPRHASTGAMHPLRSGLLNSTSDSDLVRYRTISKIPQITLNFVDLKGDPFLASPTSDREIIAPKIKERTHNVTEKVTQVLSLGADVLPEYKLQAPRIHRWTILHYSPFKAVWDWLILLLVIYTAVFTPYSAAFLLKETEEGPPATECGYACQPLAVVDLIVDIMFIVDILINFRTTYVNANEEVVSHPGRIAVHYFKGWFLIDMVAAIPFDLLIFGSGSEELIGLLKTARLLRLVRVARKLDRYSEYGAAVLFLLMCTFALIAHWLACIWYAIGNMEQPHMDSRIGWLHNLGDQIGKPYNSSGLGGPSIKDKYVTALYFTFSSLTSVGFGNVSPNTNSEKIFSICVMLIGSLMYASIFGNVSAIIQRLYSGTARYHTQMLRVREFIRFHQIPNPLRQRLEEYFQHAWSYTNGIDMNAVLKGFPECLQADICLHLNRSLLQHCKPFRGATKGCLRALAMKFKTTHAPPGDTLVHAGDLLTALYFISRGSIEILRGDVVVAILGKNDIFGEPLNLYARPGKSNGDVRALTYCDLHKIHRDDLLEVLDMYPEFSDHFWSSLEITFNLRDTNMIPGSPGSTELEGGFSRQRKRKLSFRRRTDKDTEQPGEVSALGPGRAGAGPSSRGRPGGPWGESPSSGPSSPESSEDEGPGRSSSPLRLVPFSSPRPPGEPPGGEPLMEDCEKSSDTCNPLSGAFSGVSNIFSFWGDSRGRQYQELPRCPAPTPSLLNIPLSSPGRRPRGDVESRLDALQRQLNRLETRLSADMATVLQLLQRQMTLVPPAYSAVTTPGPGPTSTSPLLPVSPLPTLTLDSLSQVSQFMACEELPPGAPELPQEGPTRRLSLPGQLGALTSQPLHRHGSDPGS
# CYP2C8, sequence (P10632 whole entry): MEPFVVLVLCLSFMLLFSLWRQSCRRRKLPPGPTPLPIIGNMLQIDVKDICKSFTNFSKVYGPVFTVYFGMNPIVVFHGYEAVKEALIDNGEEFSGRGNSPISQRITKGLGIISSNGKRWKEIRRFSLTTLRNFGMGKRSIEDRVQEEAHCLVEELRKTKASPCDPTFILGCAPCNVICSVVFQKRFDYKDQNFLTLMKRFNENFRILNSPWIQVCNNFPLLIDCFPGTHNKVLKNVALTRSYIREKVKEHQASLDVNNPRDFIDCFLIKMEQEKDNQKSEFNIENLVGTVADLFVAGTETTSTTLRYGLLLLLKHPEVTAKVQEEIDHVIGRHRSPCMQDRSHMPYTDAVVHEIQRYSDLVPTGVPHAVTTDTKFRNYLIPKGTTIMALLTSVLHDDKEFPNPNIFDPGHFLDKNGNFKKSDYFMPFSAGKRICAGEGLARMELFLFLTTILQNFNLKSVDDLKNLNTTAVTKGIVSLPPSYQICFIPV
# CYP2B6, sequence (P20813 whole entry): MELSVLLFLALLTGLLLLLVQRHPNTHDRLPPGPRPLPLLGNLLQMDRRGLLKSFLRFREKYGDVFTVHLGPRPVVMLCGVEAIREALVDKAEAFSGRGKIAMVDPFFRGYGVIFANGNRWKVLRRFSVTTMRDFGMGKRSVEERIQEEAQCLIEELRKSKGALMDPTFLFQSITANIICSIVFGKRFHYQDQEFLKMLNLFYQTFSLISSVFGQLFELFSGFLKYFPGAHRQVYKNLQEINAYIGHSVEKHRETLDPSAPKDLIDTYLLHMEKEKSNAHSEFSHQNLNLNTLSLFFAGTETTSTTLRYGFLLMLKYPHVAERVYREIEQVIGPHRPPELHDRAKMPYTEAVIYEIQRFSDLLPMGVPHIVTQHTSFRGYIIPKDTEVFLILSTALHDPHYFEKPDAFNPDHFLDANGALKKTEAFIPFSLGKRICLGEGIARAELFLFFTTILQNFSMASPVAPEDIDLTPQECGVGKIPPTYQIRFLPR
compound,measurement,setting,value
"N[C@H]1CC(C(=O)O)S(=O)(=O)C1 (mixture of isomers) [Compound 19, (4S)-4-Aminotetrahydrothiophene-2-carboxylic acid 1,1-dioxide hydrochloride]",Ki,GABA-AT [1]; read-out: Ki (reversible inhibition),3200 ± 700 µM
"N[C@H]1C=C(C(=O)O)SC1 [(S)-4-Amino-4,5-dihydro-2-thiophenecarboxylic acid]",Inactivation or inhibition of aspartate aminotransferase,[2],inactivator
same,Potency/inactivation of GABA-AT (in words),GABA-AT [3],known inactivator
"Cl.N[C@@H]1CS[C@H](C(=O)O)C1 [Compound 17, (2S,4S)-4-Aminotetrahydrothiophene-2-carboxylic acid hydrochloride]",CYP2C8 inhibition,CYP2C8,did not inhibit or induce
same,CYP2D6 inhibition,CYP2D6,did not inhibit or induce
same,CYP3A inhibition,CYP3A,did not inhibit or induce
same,CYP2B6 inhibition,CYP2B6,did not inhibit or induce
same,Inactivation of GABA-AT (in words),GABA-AT [4],potent inactivators
same,CYP2C19 inhibition,CYP2C19,did not inhibit or induce
same,CYP2C9 inhibition,CYP2C9,did not inhibit or induce
same,CYP1A inhibition,CYP1A,did not inhibit or induce
same,fraction unbound,Plasma protein binding,0.74
same,metabolized in HLM,[5],less than 20%
same,Inhibition of the hERG channel,hERG channel,did not inhibit
"Cl.N[C@@H]1CS[C@@H](C(=O)O)C1 [Compound 18, (2R,4S)-4-Aminotetrahydrothiophene-2-carboxylic acid hydrochloride]",Inactivation of GABA-AT (in words),GABA-AT [4],potent inactivators
N[C@@H]1CC(C(=O)O)S(=O)(=O)C1 (stereo partly drawn) [Compound 22],Ki,"GABA-AT [1]; pH 8.5, 25° C., from IC50 by Cheng-Prusoff, read-out: Ki (reversible inhibition)",7500 ± 700 µM
"N[C@@H]1CC[C@H](C(=O)O)C1 [Compound 39, (1S,3R)-3-aminocyclopentane-1-carboxylic acid]",Ki,GABA-AT [1]; [6],870 µM
same,Inactivation of GABA-AT (in words),GABA-AT [4],not an inactivator
"N[C@@H]1CN[C@H](C(=O)O)C1 [Compound 41, (2S,4S)-4-aminopyrrolidine-2-carboxylic acid]",Ki,GABA-AT [1]; [6],1300 µM
C=CC(N)CCC(=O)O (stereo not drawn) [vigabatrin],Duration of effective spasms suppression,infantile spasms,1 days
"mixture of (2S,4S)-4-aminotetrahydrofuran-2-carboxylic acid (40) and (2R,4R)-4-aminotetrahydrofuran-2-carboxylic acid (51) [mixture of enantiomers 40 and 51]",Ki,GABA-AT [1]; [6],430 µM
